In publication PMC11989212, “Experimental Conditions to Retrieve Intrinsic Cooperativity α Directly from Single Binding Assay Data Exemplified by the Ternary Complex Formation of FKBP12, MAPRE1 and Macrocyclic Molecular Glues” (International Journal of Molecular Sciences, 2025):
Values joined by “and” are separate entries in the source; they are usually repeats but may differ in a detail not shown here. Identical values can stand only once.

How the values were obtained:
[1] = target: T1, MAPRE1 in the presence of FKBP12 (Homo sapiens, UniProt P62942+Q15691); assay: Spectral shift target engagement assay, binding to MAPRE1 in the presence of 10 μM FKBP12 (ternary)
T1 construct: His-tag (N)
T1 sequence (Q15691 whole entry): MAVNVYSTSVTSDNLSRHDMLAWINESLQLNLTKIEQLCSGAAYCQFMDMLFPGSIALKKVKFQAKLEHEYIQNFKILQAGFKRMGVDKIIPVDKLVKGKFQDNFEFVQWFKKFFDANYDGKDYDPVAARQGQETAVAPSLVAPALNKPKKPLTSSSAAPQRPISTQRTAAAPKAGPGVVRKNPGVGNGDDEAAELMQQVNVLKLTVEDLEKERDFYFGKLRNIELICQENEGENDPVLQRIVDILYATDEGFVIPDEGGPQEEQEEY
T1 sequence (P62942 whole entry): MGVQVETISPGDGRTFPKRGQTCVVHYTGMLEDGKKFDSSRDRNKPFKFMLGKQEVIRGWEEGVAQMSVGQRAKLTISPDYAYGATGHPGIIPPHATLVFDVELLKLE
Text: (§1) Our method of choice is the spectral shift method, which monitors binding events on the target isothermally and in equilibrium via an environment-sensitive near-infrared fluorophore. In the case of target engagement, either the proximity of the ligand towards the dye or structural changes occurring in the target as a result of binding lead to a change in the chemical environment of the fluorophore. Those changes affect the physiochemical properties of the reporter fluorophore and translate into either blue or red shifts (or peak broadening) of emission peaks upon ligand binding, which can be sensitively monitored by simultaneously recording the fluorescence at two wavelengths (i.e., at 650 nm and 670 nm). Calculating the ratio between the two fluorescence channels then allows to monitor subtle emission shifts that occur as a result of target engagement. Affinity measurements can then be performed by recording the spectral shift as a function of ligand concentration.
Binding study through MAPRE1: MAPRE1 was labeled via lysines using an NHS-conjugated dye. The final concentration of MAPRE1NHS (referring to [Ttot]) was 5 nM. Compounds could be titrated up to a concentration of 200 μM (referring to [Ltot]). […] However more accuracy could only be achieved at higher ligand concentrations—ideally at full target saturation. However, this was experimentally infeasible due to assay conditions (i.e., the requirement of maintaining a certain DMSO concentration or avoiding solubility issues of the ligand). Although the determined KT,1 values of binding to MAPRE1 are only approximations, their relative ranking reflects the underlying differences in the affinity of the ligands L to MAPRE1. Performing these experiments in duplicates confirmed the high signal-to-noise ratio, i.e., there was no significant deviation between the two curves, indicating a high accuracy of the interpolated EC50 values. Due to the low [Ttot] = 5 nM, this value coincides with KT,1 (1.8 mM − 0.005 mM/2 ≈ 1.8 mM). […] Consequently, KT,2 corresponds to 173 nM and not 177.5 nM.
(§2) His-tagged FKBP12 was labeled using the His-Tag Labeling Kit RED-tris-NTA 2nd Generation (MO-L018; NanoTemper Technologies GmbH). The affinity between NTA dye and the His-tag of FKBP12 was determined as 7 nM. MAPRE1 was labeled using the Protein Labeling Kit RED-NHS 2nd Generation (MO-L011; NanoTemper Technologies GmbH). In brief, 10 µM of MAPRE1 was incubated with a 3-fold molar excess of fluorophore for 30 min. The unreacted fluorophore was removed by performing a size exclusion purification (B-column). Collecting the protein fraction yielded 1.8 µM labeled MAPRE1, with a degree of labeling of 0.8, as determined on a Nanodrop.
A 1:2 dilution series of all compounds (starting from the 10 mM stock concentration) was prepared in pure DMSO. Each concentration was diluted 25-fold with assay buffer (20 mM HEPES, pH 7.4, 150 mM NaCl, 1 mM DTT (all from Carl Roth, Karlsruhe, Germany), and 0.01% Pluronic F-127 (Sigma Aldrich, Taufkirchen, Germany)). Next, 10 µL from each of the prepared ligand dilutions was transferred into an empty well on a Dianthus Microwell Plate (DI-P001A). Another 10 µL of 2-fold concentrated labeled protein (either in the absence or the presence of 20 µM counter protein, both in assay buffer then yielded the final assay concentrations. Interaction measurements were prepared in duplicates for each condition. For binary interactions of compounds with MAPRE1, a final target concentration of 5 nM and a highest ligand concentration of 50 µM was prepared. For ternary interactions of compounds and MAPRE1 in the presence of 10 µM unlabeled FKBP12, the highest ligand concentration was increased to 200 µM, the highest concentration achievable while maintaining a constant 2% DMSO concentration. For all interactions measured via FKBP12, the target was prepared at a final concentration of 40 nM, supplemented with 5 nM NTA fluorophore. […]

FKBP12 = FKBP12 (Homo sapiens, UniProt P62942); assay: Spectral shift target engagement assay, binary binding to FKBP12; details: 40 nM FKBP12-NTA
FKBP12, sequence (P62942 whole entry, species assumed): as the sequence (P62942 whole entry) above
Text: as §1
Binding studies through FKBP12: To monitor the binding of R,--SLF-11 by the stronger binding FKBP12 in the absence and in the presence of 10 μM MAPRE1 via %Cbound, binary and %Cbound, ternary, respectively, the concentration of reversibly NTA-labeled FKBP12 was limited to [Ctot] = 40 nM. […] In contrast to the experimental setup in the previous two binding experiments with monitoring through the weaker binding protein MAPRE1, where the applied protein concentrations were optimally chosen, this is not the case for the binding experiment through the stronger binder FKBP12. First of all, the applied excess of T with [Ttot] = 10 μM is roughly 20000-fold off of the proposed 100 times KT,1 threshold, which would correspond to 180 mM. Only under such excess conditions of T can the equilibrium of forming TL under the constraint that all ligand L is bound to T be reached to ensure that [Ltot] approaches the “ligand” concentration [TL]. […] If KC,2 is sufficiently high, the 20 nM deviation to correct for the protein concentration could be neglected. However, the resulting calculated value for KC,2 is 0.023 nM, accounting for the cooperativity α = 10,405 and KC,1 = 234 nM as derived by the MAPRE1 experiment. This value is far below the applied protein concentration of [Ctot] = 40 nM and makes it infeasible to estimate KC,2 from the EC50 of the %Cbound, ternary curve. Consequently, the EC50 shifts, meaning the apparent cooperativity, from monitoring the binding by the stronger binding protein C are diverging from the underlying intrinsic cooperativity α. […] The deviation of calculated (254 nM/24.2 nM = 10.5) and measured apparent cooperativity (254 nM/66 nM = 3.8) can be explained by a negative cooperativity induced by the His6-NTA tag of FKBP12. Studies to lower [Ctot] and identify a better position for the spectral shift tag on FKBP12 are ongoing (Figure 6a).
as §2
A 1:2 dilution series of all compounds (starting from the 10 mM stock concentration) was prepared in pure DMSO. Each concentration was diluted 25-fold with assay buffer (20 mM HEPES, pH 7.4, 150 mM NaCl, 1 mM DTT (all from Carl Roth, Karlsruhe, Germany), and 0.01% Pluronic F-127 (Sigma Aldrich, Taufkirchen, Germany)). Next, 10 µL from each of the prepared ligand dilutions was transferred into an empty well on a Dianthus Microwell Plate (DI-P001A). […]

`C=C1CCN2C(=O)COc3cccc(c3)C(CCc3ccc(OC)c(OC)c3)OC(=O)C3CCCCN3C(=O)C(=O)C(C)(C)COC(=O)C(CN)NC(=O)C2C1` (stereo not shown) [R,S-SLF-7] was tested, and the EC50 ([1]; 5 nM MAPRE1-NHS, 10 μM FKBP12, read-out: EC50 of the %Tbound, ternary curve) was 1990 nM, the “Ratio [Ctot]/KC,1” value ([1]; [Ctot] = 10 μM FKBP12) was 60 and the “100 × (EC50 %Tbound ternary − 0.5 [Ttot] − KT,2)/KT,2” value ([1]; difference between EC50 of the %Tbound, ternary curve and KT,2, [Ttot] = 5 nM) was 2% and 2.1%. For the same molecule, the “Intrinsic cooperativity α” value ([1]; from KC,1, KT,1 and EC50 of the %Tbound, ternary curve with the mathematical model, [Ctot] = 10,000 nM, [Ttot] = 5 nM) was 237, the Kd ([1]; ternary Kd, model-based ([CL] at [Ltot] = EC50), read-out: KT,2) was 1940 nM and the EC50 (FKBP12; no MAPRE1, read-out: EC50 of the %Cbound, binary curve) was 186 nM. It also gave a Kd (FKBP12; KC,1 = EC50 − [Ctot]/2) of 166 nM.
